Data from patent publication US20110212235A1, “ANTIMICROBIAL SALT SOLUTIONS FOR CHEESE PROCESSING APPLICATIONS” (priority 2006, published 2011).

Key:
Type in all cases: cell-based
White Yeast = experiment: Yeast challenge, white yeast
Method: (§1) “Yeast” Procedure: • 1. Inoculate a separate tube containing 10 ml of Brain Heart Infusion (BHI) broth for each wild type (Raised, Rough and Flat white yeast along with a single pink yeast). Incubate for 5 days at 26° C.+/−2° C. • 2. Assume growth to be 10^7 cfu/ml. Since 4 cultures are being used, combine 2.75 ml of each culture added to 99 ml of cold Butterfield's Phosphate Buffered Water (PBW) to obtain 10^6 cfu/ml of yeast cocktail. • 3. Plate serial dilutions of the culture to get the starting count of the inoculum on Dichloran-Rose Bengal-Chloramphenicol Agar (DRBC). • 4. Add 1 ml of the diluted cocktail to 100 ml of cold test solution. • 5. Determine the population at time 0 and 4 hours. Spread plate serial dilutions to DRBC agar. • 6. Incubate the test solutions at 10° C.+/−2° C. for the duration of the experiment. • 7. Incubate the plates at 20° C.+/−2° C. for 5 days+/−2 hours. • 8. Count representative colonies and multiply by the dilution factor. Note: Each test solution should contain ˜10^4 cfu/ml.
(§2) In order to determine if the effect of the additive was repeatable, more challenge tests were run on samples of process brine. […] In this test the solutions were challenged with two distinct yeast (a white and a pink) types and coliforms from the samples sent by the cheese plant.

Pink Yeast = experiment: Yeast challenge, pink yeast
Method: as §1, §2

[1] = system: green mold/white yeast mixture; experiment: “Mold” procedure, green mold/white yeast mixture; details: for Green Mold + Yeast count: after 4 hours in blue cheese brine, Table 20, inoculum 5.8 × 10^6 (est)
Method: (§3) In the present example, cultures of various microorganisms native to actual process brines used in cheese manufacture were obtained from a cheese plant. The cultures of yeast, mold, and coliforms were grown and used to test the efficacy of various antimicrobial additives in blue cheese brines. Organism cultures included four different types of yeast (three distinct while yeast cultures and a pink yeast), a black mold culture, a coliform culture, a culture of mixed green mold and yeast that were not separated, and a culture that was identified by the cheese plant as heterofermentative lactic acid bacteria, although no actual identification of the strain was carried out.
(§4) “Mold” Procedure: • 1. From refrigerated stock mold cultures, take 1 ml from black mold dilution bottle added to 99 ml of cold Butterfield's Phosphate Buffered Water (PBW) to obtain 10^5 cfu/ml. • 2. Take 1 ml from green mold/white yeast mixture dilution bottle added to 99 ml of cold Butterfield's Phosphate Buffered Water (PBW) to obtain 10^6 cfu/ml. • 3. Plate serial dilutions of the cultures to get the starting count of the inoculum on Dichloran-Rose Bengal-Chloramphenicol Agar (DRBC). • 4. Add 1 ml of the diluted mold culture to 100 ml of cold test solution (do separately for each of the two mold cultures). • 5. Determine the population at time 0 and 4 hours. Spread plate serial dilutions to DRBC agar. • 6. Incubate the test solutions at 10° C.+/−2° C. for the duration of the experiment. • 7. Incubate the plates at 20° C.+/−2° C. for 5 days+/−2 hours. • 8. Count representative colonies and multiply by the dilution factor. Note: For black mold, each test solution should contain ˜10^3 cfu/ml. For green mold/white yeast mixture, each test solution should contain ˜10^4 cfu/ml.
Screening tests identified octanoic acid as a promising antimicrobial additive for salt brines. Table 16 gives results of a challenge test run on actual blue cheese and mozzarella process brine samples sent from a cheese plant. The brines were treated with different concentrations of octanoic acid and then challenged with a yeast cocktail (which included the pink and 3 different white mold types), the green mold+yeast combination, and coliforms. […] The plate counts listed parenthetically as (est) were too numerous to count and were estimated.

[2] = system: heterofermentative lactic acid bacteria (not identified); experiment: “Lactic Bacteria” procedure in cheese brine; details: after 4 hours in blue cheese brine; Table 20; inoculum 1.2 × 10^7 (est)
Method: as §3
“Lactic Bacteria” Procedure: • 1. Inoculate a separate tube containing 10 ml of Brain Heart Infusion (BHI) broth for each wild type tactics 1 and 2. Incubate for 72+/−2 hours at 30° C.+/−2° C. • 2. Assume growth to be 10^9 cfu/ml. Since two cultures are being used, combine 5.5 ml of each culture added to 99 ml of cold Butterfield's Phosphate Buffered Water (PBW) to obtain 10^8 cfu/ml. • 3. Plate serial dilutions of the culture to get the starting count of the inoculum on Lactobacilli MRS Agar (MRSA). • 4. Add 1 ml of the diluted cocktail to 100 ml of cold test solution. • 5. Determine the population at time 0 and 4 hours. Plate serial dilutions using MRSA spread plates. • 6. Incubate the test solutions at 10° C.+/−2° C. for the duration of the experiment. • 7. Incubate the plates at 30° C.+/−2° C. for 72+/−2 hours. • 8. Count representative colonies and multiply by the dilution factor. Note: Each test solution should contain ˜10^8 cfu/ml.
In this experiment solutions were challenged with cultures of the black mold, the green mold/yeast combination, and the bacteria thought to be “lactic acid” bacteria. In this experiment, a brine control with no additive was neglected, but the data still indicate the strong effectiveness of the octanoic acid against yeast and mold.

black mold = experiment: “Mold” procedure, black mold; details: after 4 hours in blue cheese brine; Table 20; inoculum 2.5 × 10^4 (est)
Method: as §3, §4

[3] = system: wild type coliforms from cheese plant brine; experiment: Coliforms procedure in cheese brine or buffered solution; details: for Coliforms count: Table 21 (sodium octanoate experiment)
Method: as §3
Coliforms Procedure: • 1. Inoculate a separate tube containing 10 ml of Brain Heart Infusion (BHI) broth for each wild type coliforms 1 and 2. Incubate for 24+/−2 hours at 35° C.+/−2° C. • 2. Assume growth to be 10^9 cfu/ml. Since two cultures are being used, combine 5.5 ml of each culture added to 99 ml of cold Butterfield's Phosphate Buffered Water (PBW) to obtain 10^8 cfu/ml. • 3. Plate serial ten-fold dilutions of the culture to get the starting count of the inoculum on Violet Red Bile Agar (VRBA). • 4. Add 1 ml of the diluted cocktail to 100 ml of cold test solution. • 5. Determine the population at time 0 and 4 hours by plating serial dilutions to VRBA spread plates. • 6. Incubate the test solutions at 10° C.+/−2° C. for the duration of the experiment. • 7. Incubate the plates at 20° C.+/−2° C. for 72+/−2 hours. • 8. Count representative colonies and multiply by the dilution factor. Note: Each test solution should contain ˜10^8 cfu/ml.
(§5) The brines were treated with different concentrations of octanoic acid and then challenged with a yeast cocktail (which included the pink and 3 different white mold types), the green mold+yeast combination, and coliforms.

[4] = system: wild type coliforms from cheese plant brine; experiment: as above; details: after 4 hours in mozzarella cheese brine
[5] = system: yeast cocktail (Raised, Rough and Flat white yeast and a pink yeast); experiment: “Yeast” procedure, yeast cocktail
Description: as §3, with “The cultures of yeast, mold, and coliforms were grown and used to test the efficacy of various antimicrobial additives in blue cheese brines.” left out
as §1, §5

[6] = system: Uncharacterized microorganisms cultured from raw ground beef; experiment: Total plate count challenge of 24% NaCl brine with ground beef organisms; details: after 4 hours in 24% NaCl brine at −5° C.
Method: Tests were run to determine the effectiveness of formulas against organisms other than L. monocytogenes. […] The test solutions were inoculated with the ground beef organism culture and incubated for 4 hours at −5° C. before plating.

[7] = after 4 hours in blue cheese brine, Table 21 (sodium octanoate experiment)
[8] = after 4 hours in blue cheese brine
[9] = Table 17, (est) = too numerous to count, estimated
[10] = after 4 hours in blue cheese brine, Table 18
[11] = after 4 hours in mozzarella cheese brine, Table 19
[12] = after 4 hours at 10° C. in blue cheese brine, Table 16
[13] = after 4 hours in mozzarella cheese brine, Table 17

Compound | White Yeast count (White Yeast; [7]) | Pink Yeast count (Pink Yeast; [7]) | Green Mold + Yeast count [1] | “Lactics” count [2] | Black Mold count (black mold) | Coliforms count [3, 8] | Coliform count [4, 9] | Coliform count ([4]; Table 19) | White Yeast count (White Yeast; [10]) | White Yeast count (White Yeast; [11]) | Pink Yeast count (Pink Yeast; [10]) | Pink Yeast count (Pink Yeast; [11]) | Yeast + Mold count [1, 12] | Yeast + Mold count [1, 13] | Yeast Cocktail count [5, 12] | Yeast Cocktail count [5, 13] | Coliform count [3, 12] | Coliform count [3, 10] | Total plate count [6]
CCCCCCCC(=O)O [62.5 ppm octanoic acid, octanoic acid] | 90 cfu/mL | <10 cfu/mL | 1.0 × 10^4 cfu/mL | 1.5 × 10^5 cfu/mL | <10 cfu/mL | 3.8 × 10^4 cfu/mL | – | – | – | – | – | – | – | – | – | – | – | – | –
CCCCCCCC(=O)O [125 ppm octanoic acid, octanoic acid] | <10 cfu/mL | <10 cfu/mL | <10 cfu/mL | 2.0 × 10^3 cfu/mL | <10 cfu/mL | <10 cfu/mL | ~3.0 × 10^6 (est) cfu/mL | 1.6 × 10^4 cfu/mL | <10 cfu/mL | 60 cfu/mL | <10 cfu/mL | <10 cfu/mL | 20 cfu/mL | 4.1 × 10^5 cfu/mL | <10 cfu/mL | 6.0 × 10^3 cfu/mL | 10 cfu/mL | <10 cfu/mL | –
CCCCCCCC(=O)O [500 ppm octanoic acid, octanoic acid] | <10 cfu/mL | <10 cfu/mL | <10 cfu/mL | <1 cfu/mL | <10 cfu/mL | <10 cfu/mL | 3.5 × 10^4 cfu/mL | 3.8 × 10^3 cfu/mL | <10 cfu/mL | <10 cfu/mL | <10 cfu/mL | 20 cfu/mL | <10 cfu/mL | 5.6 × 10^3 cfu/mL | <10 cfu/mL | <10 cfu/mL | <10 cfu/mL | <10 cfu/mL | –
CCCCCCCC(=O)O [250 ppm octanoic acid, octanoic acid] | <10 cfu/mL | <10 cfu/mL | <10 cfu/mL | <10 cfu/mL | <10 cfu/mL | <10 cfu/mL | 1.7 × 10^6 cfu/mL | 3.8 × 10^3 cfu/mL | <10 cfu/mL | <10 cfu/mL | <10 cfu/mL | <10 cfu/mL | <10 cfu/mL | 6.1 × 10^4 cfu/mL | <10 cfu/mL | 200 cfu/mL | <10 cfu/mL | <10 cfu/mL | –
alcohol ethoxylate [800 ppm alcohol ethoxylate] | – | – | – | – | – | – | – | – | – | – | – | – | – | – | – | – | – | – | <10 cfu/mL
